{"source": "paper PMC8394243", "about": "(Biomolecules, 2021)", "key": {"[1]": {"settings": "SDS-PAGE; for Effect of pefabloc (serine protease inhibitor) on degradation in CF sputum, 4 h / Effect of pefabloc (serine protease inhibitor) on degradation in CF sputum, 24 h: 1 mM pefabloc pre-incubated 30 min with sputum (100-fold in TBS)", "procedure": "Sputum from Pseudomonas-infected CF patients was obtained anonymously from the adult CF Centre at Belfast City Hospital. Sputum samples were in excess to requirements for diagnostic purposes. Permission to use sputum samples, which would have been disposed of, for validation purposes was given by the Director of R&D, Belfast Health and Social Care Trust. Sputum was frozen immediately at −80 °C and used the next day after thawing at room temperature.\nSamples were transferred to a fresh Eppendorf at regular time-points (0, 1, 2, 3, 4, 18 and 24, as appropriate) and boiled on a heat block at 95 °C for ten minutes to terminate the reaction. […] CF sputum (diluted 100-fold in 1X TBS) was incubated with 0.1 mM E64, 5 mM EDTA or 1 mM pefabloc for 30 min prior to addition of peptides. Following the addition of peptide, the samples were incubated for four or 24 h at 37 °C. An aliquot was taken at 0, 4 or 24 h and boiled for ten minutes at 95 °C to terminate the reaction. Samples were stored at 4 °C until analysed by SDS-PAGE.\nPeptide samples were separated by sodium dodecyl sulphate-polyacrylamide gel electrophoresis (SDS-PAGE) under denaturing and reducing conditions using 4–12% Invitrogen NuPAGE Novex Bis-Tris precast gels (Thermo Fisher Scientific, Loughborough, UK) and the Invitrogen XCell SureLock Mini-Cell (Thermo Fisher Scientific, Loughborough, UK). An aliquot of 10 μL peptide samples was incubated with 4 μL NuPAGE lithium dodecyl sulphate (LDS) sample buffer (Thermo Fisher Scientific) and 2 μL of 500 nM dithiothreitol (DTT) (Fluorochem, Hadfield, UK) for ten minutes at 95 °C and 15 μL of sample mixture loaded per lane and 5 μL of SeeBlue Plus2 pre-stained protein standard (Thermo Fisher Scientific, Loughborough, UK) loaded in at least one lane. The samples were run using 1X 2-morpholinoethanesulfonic acid (MES)-SDS running buffer (Thermo Fisher Scientific, Loughborough, UK). Electrophoresis was performed under a constant current of 125 mA for 40–60 min. The gel was stained using Biosafe Coomassie Brilliant Blue G-250 stain (Biorad, Watford, UK) for 60 min, washed and destained in water overnight and imaged using a Syngene G:box and GeneSnap software (Syngene, Cambridge, UK)."}, "[2]": {"target": "human sputum leucocyte elastase (neutrophil elastase, NE) (Homo sapiens, UniProt P08246)", "sequence (P08246 30-247 limits assumed)": "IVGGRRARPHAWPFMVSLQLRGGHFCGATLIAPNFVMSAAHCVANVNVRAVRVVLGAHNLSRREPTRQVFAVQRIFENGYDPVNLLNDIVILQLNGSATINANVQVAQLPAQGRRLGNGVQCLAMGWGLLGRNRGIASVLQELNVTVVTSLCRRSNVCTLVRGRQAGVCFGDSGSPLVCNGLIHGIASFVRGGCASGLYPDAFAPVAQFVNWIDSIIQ", "settings": "500 nM NE, 37 °C, 0-4 h, hourly samples; peptide 500 μg/mL or parental molar equivalent (160 or 120 μM); SDS-PAGE, Coomassie, visual", "experimental": "The method for reaction termination was dependent on subsequent experiments/analysis. For samples intended for investigation of peptide activity using in vitro experiments the reaction was terminated via addition of 1 mM of the serine protease inhibitor pefabloc (Merck, Gillingham, UK), which was added to all groups including the NE alone groups. Samples intended for peptide degradation analysis via SDS-PAGE or mass spectrometry were boiled at 95 °C for ten minutes using a heat block to terminate the reaction.\nPeptide samples were separated by sodium dodecyl sulphate-polyacrylamide gel electrophoresis (SDS-PAGE) under denaturing and reducing conditions using 4–12% Invitrogen NuPAGE Novex Bis-Tris precast gels (Thermo Fisher Scientific, Loughborough, UK) and the Invitrogen XCell SureLock Mini-Cell (Thermo Fisher Scientific, Loughborough, UK). An aliquot of 10 μL peptide samples was incubated with 4 μL NuPAGE lithium dodecyl sulphate (LDS) sample buffer (Thermo Fisher Scientific) and 2 μL of […] dithiothreitol (DTT) (Fluorochem, Hadfield, UK) for ten minutes at 95 °C and 15 μL of sample mixture loaded per lane and 5 μL of SeeBlue Plus2 pre-stained protein standard (Thermo Fisher Scientific, Loughborough, UK) loaded in at least one lane. The samples were run using 1X 2-morpholinoethanesulfonic acid (MES)-SDS running buffer (Thermo Fisher Scientific, Loughborough, UK). Electrophoresis was performed under a constant current of 125 mA for 40–60 min. The gel was stained using Biosafe Coomassie Brilliant Blue G-250 stain (Biorad, Watford, UK) for 60 min, washed and destained in water overnight and imaged using a Syngene G:box and GeneSnap software (Syngene, Cambridge, UK)."}, "[3]": {"system": "human sputum leucocyte elastase (neutrophil elastase, NE)", "assay": "500 nM of NE in 1 X TBS", "settings": "37 °C, up to four hours"}, "[4]": {"target": "neutrophil elastase (Homo sapiens, UniProt P08246)", "sequence (P08246 30-247 limits assumed)": "as above", "settings": "500 μg/mL peptide, 500 nM NE in 1X TBS, 4 h, 37 °C; MALDI-TOF-MS", "procedure": "The method for reaction termination was dependent on subsequent experiments/analysis. […] Samples intended for peptide degradation analysis via SDS-PAGE or mass spectrometry were boiled at 95 °C for ten minutes using a heat block to terminate the reaction.\nThis service was provided by the University of Dundee (Dundee, UK)."}, "[5]": {"assay": "CF sputum (diluted 100-fold in 1X tris-buffered saline (TBS))", "settings": "CF patients, 37 °C, up to four hours"}, "[6]": {"settings": "5 mM EDTA pre-incubated 30 min with sputum (100-fold in TBS), then peptide 24 h at 37 °C"}}, "note": "Ends that are not written are not given here.", "data": [{"sequence": "KFFKRLLKSVRRAVKKFRKK [Sn1a]", "values": [{"measurement": "Effect of pefabloc (serine protease inhibitor) on degradation in CF sputum, 4 h", "setting": "[1]; then peptide 4 h at 37 °C", "value": "prevented only by the inhibitor pefabloc"}]}, {"sequence": "KFFKRLLKSVRRAVKKFRKKPRLIGLSTLL [Sn1]", "values": [{"measurement": "Effect of pefabloc (serine protease inhibitor) on degradation in CF sputum, 4 h", "setting": "[1]; then peptide 4 h at 37 °C", "value": "prevented only by the inhibitor pefabloc"}]}, {"sequence": "KRFKKFFKKLKNSV [SnE1N]", "values": [{"measurement": "Cleavage by neutrophil elastase", "setting": "[2]", "value": "appeared to remain intact"}, {"measurement": "Effect of pefabloc (serine protease inhibitor) on degradation in CF sputum, 24 h", "setting": "[1]; then peptide 24 h at 37 °C", "value": "prevented degradation"}, {"measurement": "Effect of EDTA (MMP inhibitor) on degradation in CF sputum, 24 h", "setting": "[1]; [6]", "value": "prevented degradation"}]}, {"sequence": "KRFKKFFKKLKNSVKKRAKKFFKKPRVI [SnE1-F]", "values": [{"measurement": "Cleavage by neutrophil elastase", "setting": "[2]", "value": "gradual transition from one band of larger molecular weight to one or more bands of smaller molecular weight"}, {"measurement": "Effect of E64 (cysteine protease inhibitor) on degradation in CF sputum, 24 h", "setting": "[1]; 0.1 mM E64 pre-incubated 30 min with sputum (100-fold in TBS), then peptide 24 h at 37 °C", "value": "did not prevent"}, {"measurement": "Effect of pefabloc (serine protease inhibitor) on degradation in CF sputum, 4 h", "setting": "[1]; then peptide 4 h at 37 °C", "value": "prevented in the presence of pefabloc"}, {"measurement": "Effect of pefabloc (serine protease inhibitor) on degradation in CF sputum, 24 h", "setting": "[1]; then peptide 24 h at 37 °C", "value": "prevented the degradation"}, {"measurement": "Effect of EDTA (MMP inhibitor) on degradation in CF sputum, 24 h", "setting": "[1]; [6]", "value": "did not prevent"}, {"measurement": "Degradation in CF sputum within 4 h", "setting": "[1]; CF sputum diluted 100-fold in 1X TBS, 37 °C, 0-4 h, peptide 500 μg/mL or parental molar equivalent (160 or 120 μM), Coomassie, visual", "value": "some degradation"}]}, {"sequence": "KRFKKFFKKLKNSVKKRAKKFFKKPRVIGVSIPF", "values": [{"measurement": "cleaved bond", "setting": "[3]", "value": "V-K and I-G"}]}, {"sequence": "KRFKKFFKKLKNSVKKRAKKFFKKPRVIGVSIPF [SnE1]", "values": [{"measurement": "Cleavage by neutrophil elastase", "setting": "[2]", "value": "gradual transition from one band of larger molecular weight to one or more bands of smaller molecular weight"}, {"measurement": "Neutrophil elastase cleavage sites (peptide cleaved after each site marked)", "setting": "[4]", "value": "KRFKKFFKKLKNSV│[…]│GVSIPF"}]}, {"sequence": "KRFKKFFKKVKKSVKKRLKKIFKKPMVIGVTIPF", "values": [{"measurement": "cleaved bond", "setting": "[3]", "value": "V-K and I-F"}]}, {"sequence": "KRFKKFFKKVKKSVKKRLKKIFKKPMVIGVTIPF [SnV1]", "values": [{"measurement": "Effect of pefabloc (serine protease inhibitor) on degradation in CF sputum, 4 h", "setting": "[1]; then peptide 4 h at 37 °C", "value": "prevented only by the inhibitor pefabloc"}]}, {"sequence": "KRFKKFFKRLLKSV", "values": [{"measurement": "not cleaved", "setting": "[5]", "value": "did not exhibit obvious degradation when incubated with CF sputum after 4 h"}]}, {"sequence": "KRFKKFFKRLLKSV [Sn1bN]", "values": [{"measurement": "Cleavage by neutrophil elastase", "setting": "[2]", "value": "did not result in obvious cleavage"}]}, {"sequence": "KRFKKFFKRLLKSVRRAVKKFRKK", "values": [{"measurement": "cleaved bond", "setting": "[3]", "value": "V-R"}]}, {"sequence": "KRFKKFFKRLLKSVRRAVKKFRKK [Sn1b]", "values": [{"measurement": "Cleavage by neutrophil elastase", "setting": "[2]", "value": "rapidly cleaved"}, {"measurement": "Effect of EDTA (MMP inhibitor) on degradation in CF sputum, 4 h", "setting": "[1]; 5 mM EDTA pre-incubated 30 min with sputum (100-fold in TBS), then peptide 4 h at 37 °C", "value": "inhibited"}]}]}
